These results are taken from EP0513997A1, “Antithrombotic compositions” (CHINOIN Gyogyszer és Vegyészeti Termékek Gyára RT., priority 1991, dated 1992).

Each structure is given as a SMILES string.

The subject of test [1] is rabbit platelets. Briefly: In vitro rabbit platelet aggregation induced by ADP, collagen, AA or A 23187 Ca ionophor. Format: cell-based. The text has this: We compared on rabbit platelets the in vitro antiaggregatory effect , of acetylsalicylic acid (ASA), salicylic acid (SA). Pentoxifylline (Pentox or Trental), Nospa, Papaverine and Depogen. The aggregation of the rabbit platelets was induced by adenosine diphosphate (ADP), arachidonic acid (AA), Collagen and A 23187 Ca ionophor.

Test [2] relates to rabbit platelets. Briefly: Inhibition of PAF induced platelet aggregation. It is filed as cell-based. The settings on record: aggregation induced by 1 µM of PAF.
For test [3], the system named is rabbit platelets. The test is described as follows: Inhibition of PAF induced serotonine release in platelets. It is filed as cell-based. The following applies: release induced by 5 x 10⁻⁸ M of PAF.
Test [4] concerns platelet aggregation. The test is described as follows: Ex vivo platelet aggregation after administration. Format: in vivo, rabbits.
In test [5] the test system is thrombus formation. Briefly: In vivo thrombus formation on cotton thread in arterio-venous plastic vessel shunt. The arrangement: species or system anaesthetised rabbits. On the procedure: We investigated furthermore the in vivo antithrombotic effect of Depogen on anaesthetised rabbits. Depogen was administered intravenously in a dose range of 2.5-7.5 mg/kg. The vena yugularis was connected with the arteria carotis with the help of a plastic vessel. In the plastic vessel a cotton thread was placed, which served as inductor. The amount of thrombus sticked to the surface of the cotton was weighed in the case of the treated and untreated animals (after Herrmann R.G. et al., Proc. Soc. Exp. Biol. Med. 139, 548-552, 1972.)

For test [6], the system named is prostacyclin release from the aorta. The test is described as follows: In vitro prostacyclin (PGI2) release from the aorta. Format: cell-based. The settings on record: in vitro (Figure 6). An excerpt: From the point of view of PGI2 release Depogen represents a considerable […] compared to Pentoxifylline, as the ratio of the doses inhibiting platelet aggregation and increasing PGI2 release is lower for Depogen than for Pentoxifylline (Table 6) and thus the effective dose ranges of the two actions are closer to each other in the case of Depogen.

For test [7], the system named is thromboxane and prostacyclin level of the blood plasma. Briefly: Thromboxane and prostacyclin level of the blood plasma after 4 days per os administration. The settings on record: rat, determined on the 5th day. Format: in vivo. On the procedure:
We investigated the effect of Depogen on the thromboxane and prostacyclin level of the blood plasma, in rat, after 4 days of per os administration in doses of 5 mg/kg and 10 mg/kg. On the 5th day we determined the thromboxane and prostacyclin level of the blood plasma (Table 7).

In test [8] the test system is acified ethanol- and indomethacine- induced ulceration. The test is described as follows: Acidified ethanol- and indomethacin-induced ulceration. It is filed as in vivo. The settings on record: rat, in the antiaggregatory dose. The text has this:
The active ingredients according to the present invention, first of all Depogen, have further advantages compared with the widespreadly used ASA. ASA has significant gastrointestinal adverse effects, such as peptic ulcer, gastric haemorrhage. Depogen has no such adverse effect, and what is more, it has a weak ulcus-preventing activity. According to the measurements, in the antiaggregatory dose it exerts a 25-50 % inhibition on the acified ethanol- and indomethacine- induced ulceration in rat.

Setting [9] is: Oryctolagus cuniculus, Platelet, aggregation induced by A-23187 Ca ionophor, in vitro, read-out: IC50 rabbit platelet aggregation, A-23187.
Where [10] appears, read: Oryctolagus cuniculus, Platelet, aggregation induced by ADP, in vitro, read-out: IC50 rabbit platelet aggregation, ADP.
Where [11] appears, read: Oryctolagus cuniculus, Platelet, aggregation induced by Collagen, in vitro, read-out: IC50 rabbit platelet aggregation, Collagen.
Setting [12] is: Oryctolagus cuniculus, Platelet, aggregation induced by arachidonic acid (AA), in vitro, read-out: IC50 rabbit platelet aggregation, AA.
Where [13] appears, read: Oryctolagus cuniculus, Platelet.
[14] abbreviates: Oryctolagus cuniculus, Platelet, read-out: IC50 rabbit platelet aggregation, A-23187.
The mark [15] stands for this setting: Oryctolagus cuniculus, Platelet, read-out: IC50 rabbit platelet aggregation, AA.
Where [16] appears, read: Oryctolagus cuniculus, Platelet, read-out: IC50 rabbit platelet aggregation, ADP.
The mark [17] stands for this setting: Oryctolagus cuniculus, Platelet, read-out: IC50 rabbit platelet aggregation, Collagen.
Setting [18] is: Table 5, unit inferred, aggregation induced by A 23187, read-out: Antiaggregatory Effect A 23187.
The mark [19] stands for this setting: Table 5, unit inferred, aggregation induced by AA, read-out: Antiaggregatory Effect AA.
Setting [20] is: Table 5, unit inferred, aggregation induced by ADP, read-out: Antiaggregatory Effect ADP.
Where [21] appears, read: Table 5, unit inferred, aggregation induced by Collagen, read-out: Antiaggregatory Effect Collagen.
[22] abbreviates: aggregation induced by A-23187 Ca ionophor, in vitro, read-out: IC50 rabbit platelet aggregation, A-23187.
The mark [23] stands for this setting: aggregation induced by ADP, in vitro, read-out: IC50 rabbit platelet aggregation, ADP.
The mark [24] stands for this setting: aggregation induced by Collagen, in vitro, read-out: IC50 rabbit platelet aggregation, Collagen.
Where [25] appears, read: aggregation induced by arachidonic acid (AA), in vitro, read-out: IC50 rabbit platelet aggregation, AA.
[26] abbreviates: p.o. 10 mg/kg/day during 4 days.

For the compound `CC(=O)CCCCn1c(=O)c2c(ncn2C)n(C)c1=O` [Pentoxifylline, reference compound], the IC50 in test [1] (Oryctolagus cuniculus, Platelet, Table 5, unit inferred, aggregation induced by AA, read-out: Antiaggregatory Effect AA) is 1870 µM; in test [1] (Oryctolagus cuniculus, Platelet, Table 5, unit inferred, aggregation induced by ADP, read-out: Antiaggregatory Effect ADP) it was 2660 µM; in test [1] (Oryctolagus cuniculus, Platelet, Table 5, unit inferred, aggregation induced by Collagen, read-out: Antiaggregatory Effect Collagen), 2050 µM; in test [1] (setting [9]) it was 2770 µM; in test [1] (setting [10]), 2660 µM; in test [1] (setting [11]), 2050 µM. The IC50 is 1870 µM in test [1] (setting [12]), 1000 µM in test [2] (setting [13]) and 800 µM in test [3] (setting [13]).

As to `CC(=O)Oc1ccccc1C(=O)O` [ASA, acetylsalicylic acid, reference compound], the IC50 in test [1] (setting [9]) amounted to 2440 µM; in test [1] (setting [10]) it was 4050 µM; in test [1] (setting [11]) it was 2610 µM; in test [1] (setting [12]) it was 780 µM.

Take `O=C(O)c1ccccc1O` [Salicylic acid, salicylic acid, reference compound]: the IC50 in test [1] (setting [14]) worked out at 2610 µM; in test [1] (setting [15]) it was 1010 µM; in test [1] (setting [16]), 1380 µM; in test [1] (setting [17]), 1300 µM.

For the compound `CCOc1ccc(CC2=NCCc3cc(OCC)c(OCC)cc32)cc1OCC` [Depogen, (3′,4′-diethoxy-benzyl)-6,7-diethoxy-3,4-dihydroisoquinolinium theophyllin-7-acetate], the IC50 in test [1] (setting [18]) is 228 µM; in test [1] (setting [19]), 240 µM; in test [1] (setting [20]), 247 µM; in test [1] (setting [21]) it was 140 µM; in test [1] (setting [22]), 230 µM; in test [1] (setting [23]), 247 µM. Further, the IC50 amounted to 140 µM in test [1] (setting [24]), 240 µM in test [1] (setting [25]), 684 µM in test [2] (setting [13]) and 118 µM in test [3] (setting [13]). Also, the “antiaggregatory effect, times stronger than that of ASA” value in test [1] (compared with ASA, in vitro) is 10-20 times. Further, in test [4] (Oryctolagus cuniculus, Platelet, iv, dose 2.5 mg/kg intravenously, read-out: Inhibitory Effect % ex vivo aggregation), the inhibition at 2.5 mg/kg is 30 ± 4%. Further, the inhibition at 5 mg/kg in test [4] (Oryctolagus cuniculus, Platelet, iv, dose 5.0 mg/kg intravenously, read-out: Inhibitory Effect % ex vivo aggregation) was 45 ± 5%. Besides, the inhibition at 7.5 mg/kg in test [4] (Oryctolagus cuniculus, Platelet, iv, dose 7.5 mg/kg intravenously, read-out: Inhibitory Effect % ex vivo aggregation) was found to be 55 ± 6%. Further, the “antiaggregatory effect in ex vivo experiments” value in test [4] (after oral and intravenous administration (Figures 3 and 4)) is given as “significant antiaggregatory effect”. In addition, the “Inhibitory Effect % in vivo thrombus formation” value came to 25± 3% in test [5] (dose 2.5 mg/kg intravenously), 45± 5% in test [5] (dose 5.0 mg/kg intravenously) and 60± 7% in test [5] (dose 7.5 mg/kg intravenously). In addition, the “prostacyclin release from the aorta” value in test [6] is reported as “significantly enhances”. The PGI2 is listed as 206.4± 11.2 pg/ml of plasma in test [7] (p.o. 5 mg/kg/day during 4 days) and 363.8± 19.3 pg/ml of plasma in test [7] (setting [26]). In addition, the PGI2/TxA2 in test [7] (p.o. 5 mg/kg/day during 4 days) was 4.2; in test [7] (setting [26]), 11. Further, the figures for the TxA2 in test [7] (p.o. 5 mg/kg/day during 4 days) and in test [7] (setting [26]) were 48.7± 3.9 pg/ml of plasma and 33.7± 3.6 pg/ml of plasma, respectively. The “inhibition on the acified ethanol- and indomethacine- induced ulceration” value in test [8] is listed as 25-50%.

Take `CCOc1ccc(CC2=NCCc3cc(OCC)c(OCC)cc32)cc1OCC` [Nospa, 1-(3-,4′-diethoxybenzyl)-6,7-diethoxy-3,4-dihydro-iso-quinoline]: the IC50 in test [1] (setting [18]) is 840 µM; in test [1] (setting [19]), 810 µM; in test [1] (setting [20]), 740 µM; in test [1] (setting [21]), 580 µM; in test [1] (setting [22]), 840 µM; in test [1] (setting [23]), 740 µM. In addition, the IC50 in test [1] (setting [24]) was found to be 580 µM; in test [1] (setting [25]) it was 810 µM; in test [2], 756 µM; in test [3], 96 µM.

As for `COc1ccc(Cc2nccc3cc(OC)c(OC)cc23)cc1OC` [Papaverine, 1-(3′,4′-dimethoxy-benzyl)-6,7-dimethoxy-isoquinoline], the IC50 in test [1] (Oryctolagus cuniculus, Platelet, read-out: Antiaggregatory Effect A 23187) amounted to 1060 µM; in test [1] (Oryctolagus cuniculus, Platelet, read-out: Antiaggregatory Effect AA) it was 130 µM; in test [1] (Oryctolagus cuniculus, Platelet, read-out: Antiaggregatory Effect ADP), 190 µM; in test [1] (Oryctolagus cuniculus, Platelet, read-out: Antiaggregatory Effect Collagen), 270 µM; in test [1] (setting [14]), 1060 µM; in test [1] (setting [15]), 130 µM. The IC50 in test [1] (setting [16]) is 190 µM; in test [1] (setting [17]), 270 µM; in test [2] (setting [13]), 656 µM; in test [3] (setting [13]), 48.2 µM.
